Measured values taken from PubChem BioAssay (NCI).
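1) Cells in 96-well plates. 2) Compound, 48 h, 5 concentrations. 3) Linear interpolation between surrounding doses. 4) Unreached endpoint = highest concentration. GI50 is the concentration that inhibits growth by half. At the TGI there is no net growth.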

Columns and labels:
Test in all cases: DTP human tumour cell line panel, 48 h
HOP-62 NSCLC = system: HOP-62 NSCLC
SNB-19 CNS = system: SNB-19 CNS
RPMI-8226 leukemia = system: RPMI-8226 leukemia
OVCAR-8 ovarian = system: OVCAR-8 ovarian
RXF 393 renal = system: RXF 393 renal
A498 renal = system: A498 renal
NCI-H460 lung = system: NCI-H460 lung
CAKI-1 renal = system: CAKI-1 renal
NCI-H23 lung = system: NCI-H23 lung
MOLT-4 leukemia = system: MOLT-4 leukemia
HOP-92 NSCLC = system: HOP-92 NSCLC
OVCAR-5 ovarian = system: OVCAR-5 ovarian
DU-145 prostate = system: DU-145 prostate
MDA-MB-435 = system: MDA-MB-435
MALME-3M melanoma = system: MALME-3M melanoma
COLO 205 colon = system: COLO 205 colon
IGROV1 ovarian = system: IGROV1 ovarian
A549 NSCLC = system: A549 NSCLC
UO-31 renal = system: UO-31 renal
PC-3 prostate = system: PC-3 prostate
HCT-116 colon = system: HCT-116 colon
OVCAR-4 ovarian = system: OVCAR-4 ovarian
NCI-H522 lung = system: NCI-H522 lung
SK-OV-3 ovarian = system: SK-OV-3 ovarian
MCF7 breast = system: MCF7 breast
HS 578T breast = system: HS 578T breast
NCI/ADR-RES ovarian = system: NCI/ADR-RES ovarian
T-47D breast = system: T-47D breast
SNB-75 CNS = system: SNB-75 CNS
CCRF-CEM leukemia = system: CCRF-CEM leukemia
SF-268 CNS = system: SF-268 CNS
UACC-257 melanoma = system: UACC-257 melanoma
SK-MEL-2 melanoma = system: SK-MEL-2 melanoma
BT-549 breast = system: BT-549 breast
KM12 colon = system: KM12 colon
NCI-H226 lung = system: NCI-H226 lung
HCC-2998 colon = system: HCC-2998 colon
SF-295 CNS = system: SF-295 CNS
SR leukemia = system: SR leukemia
SW-620 colon = system: SW-620 colon
K-562 leukemia = system: K-562 leukemia
MDA-MB-231 breast = system: MDA-MB-231 breast
HT29 colon = system: HT29 colon
SK-MEL-28 melanoma = system: SK-MEL-28 melanoma
UACC-62 melanoma = system: UACC-62 melanoma
TK-10 renal = system: TK-10 renal
M14 melanoma = system: M14 melanoma
U251 CNS = system: U251 CNS
SK-MEL-5 melanoma = system: SK-MEL-5 melanoma
LOX IMVI melanoma = system: LOX IMVI melanoma
HCT-15 colon = system: HCT-15 colon
SF-539 CNS = system: SF-539 CNS
786-0 renal = system: 786-0 renal
SN12C renal = system: SN12C renal
OVCAR-3 ovarian = system: OVCAR-3 ovarian
ACHN renal = system: ACHN renal

Work on `COc1cc2c(cc1OC)C(CC1(O)CCCCC1)N(S(=O)(=O)c1ccc(C)cc1)CC2` (configuration not stated) yielded a GI50 (HOP-62 NSCLC) of over 10 µM, a TGI (HOP-62 NSCLC) of over 10 µM and a GI50 (SNB-19 CNS) of over 10 µM. The TGI (SNB-19 CNS) was over 10 µM, the GI50 (RPMI-8226 leukemia) was over 10 µM and the TGI (RPMI-8226 leukemia) was over 10 µM. For the same compound, the GI50 (OVCAR-8 ovarian) was over 10 µM, the TGI (OVCAR-8 ovarian) was over 10 µM and the GI50 (RXF 393 renal) was over 10 µM. For the same compound, the TGI (RXF 393 renal) was over 10 µM, the GI50 (A498 renal) was over 10 µM and the TGI (A498 renal) was over 10 µM. It also gave a GI50 (NCI-H460 lung) of over 10 µM, a TGI (NCI-H460 lung) of over 10 µM and a GI50 (CAKI-1 renal) of over 10 µM. The TGI (CAKI-1 renal) was over 10 µM, the GI50 (NCI-H23 lung) was over 10 µM and the TGI (NCI-H23 lung) was over 10 µM. The GI50 (MOLT-4 leukemia) was over 10 µM, the TGI (MOLT-4 leukemia) was over 10 µM and the GI50 (HOP-92 NSCLC) was over 10 µM. The TGI (HOP-92 NSCLC) was over 10 µM, the GI50 (OVCAR-5 ovarian) was over 10 µM and the TGI (OVCAR-5 ovarian) was over 10 µM. The GI50 (DU-145 prostate) was over 10 µM, the TGI (DU-145 prostate) was over 10 µM and the GI50 (MDA-MB-435) was over 10 µM. The TGI (MDA-MB-435) was over 10 µM, the GI50 (MALME-3M melanoma) was over 10 µM and the TGI (MALME-3M melanoma) was over 10 µM. For the same compound, the GI50 (COLO 205 colon) was over 10 µM, the TGI (COLO 205 colon) was over 10 µM and the GI50 (IGROV1 ovarian) was over 10 µM. It also gave a TGI (IGROV1 ovarian) of over 10 µM, a GI50 (A549 NSCLC) of over 10 µM and a TGI (A549 NSCLC) of over 10 µM. The GI50 (UO-31 renal) was over 10 µM, the TGI (UO-31 renal) was over 10 µM and the GI50 (PC-3 prostate) was over 10 µM. For the same compound, the TGI (PC-3 prostate) was over 10 µM, the GI50 (HCT-116 colon) was over 10 µM and the TGI (HCT-116 colon) was over 10 µM. For the same compound, the GI50 (OVCAR-4 ovarian) was over 10 µM, the TGI (OVCAR-4 ovarian) was over 10 µM and the GI50 (NCI-H522 lung) was over 10 µM. It also gave a TGI (NCI-H522 lung) of over 10 µM, a GI50 (SK-OV-3 ovarian) of over 10 µM and a TGI (SK-OV-3 ovarian) of over 10 µM. For the same compound, the GI50 (MCF7 breast) was over 10 µM, the TGI (MCF7 breast) was over 10 µM and the GI50 (HS 578T breast) was over 10 µM. For the same compound, the TGI (HS 578T breast) was over 10 µM, the GI50 (NCI/ADR-RES ovarian) was over 10 µM and the TGI (NCI/ADR-RES ovarian) was over 10 µM. It also gave a GI50 (T-47D breast) of over 10 µM, a TGI (T-47D breast) of over 10 µM and a GI50 (SNB-75 CNS) of over 10 µM. The TGI (SNB-75 CNS) was over 10 µM, the GI50 (CCRF-CEM leukemia) was over 10 µM and the TGI (CCRF-CEM leukemia) was over 10 µM. The GI50 (SF-268 CNS) was over 10 µM, the TGI (SF-268 CNS) was over 10 µM and the GI50 (UACC-257 melanoma) was over 10 µM. For the same compound, the TGI (UACC-257 melanoma) was over 10 µM, the GI50 (SK-MEL-2 melanoma) was over 10 µM and the TGI (SK-MEL-2 melanoma) was over 10 µM. For the same compound, the GI50 (BT-549 breast) was over 10 µM, the TGI (BT-549 breast) was over 10 µM and the GI50 (KM12 colon) was over 10 µM. For the same compound, the TGI (KM12 colon) was over 10 µM, the GI50 (NCI-H226 lung) was over 10 µM and the TGI (NCI-H226 lung) was over 10 µM. For the same compound, the GI50 (HCC-2998 colon) was over 10 µM, the TGI (HCC-2998 colon) was over 10 µM and the GI50 (SF-295 CNS) was over 10 µM. For the same compound, the TGI (SF-295 CNS) was over 10 µM, the GI50 (SR leukemia) was over 10 µM and the TGI (SR leukemia) was over 10 µM. The GI50 (SW-620 colon) was over 10 µM, the TGI (SW-620 colon) was over 10 µM and the GI50 (K-562 leukemia) was over 10 µM. For the same compound, the TGI (K-562 leukemia) was over 10 µM, the GI50 (MDA-MB-231 breast) was over 10 µM and the TGI (MDA-MB-231 breast) was over 10 µM. It also gave a GI50 (HT29 colon) of over 10 µM, a TGI (HT29 colon) of over 10 µM and a GI50 (SK-MEL-28 melanoma) of over 10 µM. For the same compound, the TGI (SK-MEL-28 melanoma) was over 10 µM, the GI50 (UACC-62 melanoma) was over 10 µM and the TGI (UACC-62 melanoma) was over 10 µM. It also gave a GI50 (TK-10 renal) of over 10 µM, a TGI (TK-10 renal) of over 10 µM and a GI50 (M14 melanoma) of over 10 µM. For the same compound, the TGI (M14 melanoma) was over 10 µM, the GI50 (U251 CNS) was over 10 µM and the TGI (U251 CNS) was over 10 µM. The GI50 (SK-MEL-5 melanoma) was over 10 µM, the TGI (SK-MEL-5 melanoma) was over 10 µM and the GI50 (LOX IMVI melanoma) was over 10 µM. For the same compound, the TGI (LOX IMVI melanoma) was over 10 µM, the GI50 (HCT-15 colon) was over 10 µM and the TGI (HCT-15 colon) was over 10 µM. It also gave a GI50 (SF-539 CNS) of over 10 µM, a TGI (SF-539 CNS) of over 10 µM and a GI50 (786-0 renal) of over 10 µM. It also gave a TGI (786-0 renal) of over 10 µM, a GI50 (SN12C renal) of over 10 µM and a TGI (SN12C renal) of over 10 µM. It also gave a GI50 (OVCAR-3 ovarian) of over 10 µM, a TGI (OVCAR-3 ovarian) of over 10 µM and a GI50 (ACHN renal) of over 10 µM. The TGI (ACHN renal) was over 10 µM.
